In ChEMBL document CHEMBL1147633, “Structure-activity relationships of a novel class of endothelin receptor selective antagonists; 6-carboxy-2-isopropylamino-5,7-diarylcyclopenteno[1,2-b]pyridines” (Bioorg Med Chem Lett, 2004):

Key:
[1] = target: T1, Endothelin receptor type B (Homo sapiens, UniProt P24530); assay: Inhibitory activity against [125I]ET1 binding to human endothelin B receptor
T1 sequence (P24530 whole entry): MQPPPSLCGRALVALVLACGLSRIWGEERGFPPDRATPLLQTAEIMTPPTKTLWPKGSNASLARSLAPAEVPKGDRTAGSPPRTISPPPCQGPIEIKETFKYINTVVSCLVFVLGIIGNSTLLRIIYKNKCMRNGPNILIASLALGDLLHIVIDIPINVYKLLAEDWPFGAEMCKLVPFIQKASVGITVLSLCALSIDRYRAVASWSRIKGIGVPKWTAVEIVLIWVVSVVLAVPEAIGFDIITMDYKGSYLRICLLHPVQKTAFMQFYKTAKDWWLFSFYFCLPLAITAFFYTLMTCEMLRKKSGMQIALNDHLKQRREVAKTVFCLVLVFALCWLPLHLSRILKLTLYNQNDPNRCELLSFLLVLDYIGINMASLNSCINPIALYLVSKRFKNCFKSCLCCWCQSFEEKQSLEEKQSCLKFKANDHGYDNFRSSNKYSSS

Endothelin-1 receptor = target: T2, Endothelin-1 receptor (Homo sapiens, UniProt P25101); assay: Inhibitory activity against [125I]ET1 binding to human endothelin A receptor
T2 sequence (P25101 whole entry): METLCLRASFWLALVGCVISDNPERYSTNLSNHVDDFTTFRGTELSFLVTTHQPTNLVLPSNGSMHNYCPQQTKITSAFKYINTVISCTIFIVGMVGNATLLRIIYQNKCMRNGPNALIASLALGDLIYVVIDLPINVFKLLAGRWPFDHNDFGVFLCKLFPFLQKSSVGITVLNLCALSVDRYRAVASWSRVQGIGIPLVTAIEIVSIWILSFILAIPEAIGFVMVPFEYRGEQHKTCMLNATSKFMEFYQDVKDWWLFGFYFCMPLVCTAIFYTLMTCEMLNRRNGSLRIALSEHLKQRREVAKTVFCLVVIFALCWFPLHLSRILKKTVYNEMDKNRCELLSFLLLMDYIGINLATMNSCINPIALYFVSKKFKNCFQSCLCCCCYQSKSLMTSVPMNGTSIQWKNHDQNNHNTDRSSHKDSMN

[2] = target: Endothelin receptor, ET-A/ET-B (Homo sapiens) (UniProt P24530+P25101); assay: Selectivity ratio of inhibitory activity towards endothelin receptor A to endothelin receptor B (ETB/ETA); type: protein assay
Rattus norvegicus [3] = assay: Plasma levels of compound was evaluated in rats after 4 hr of oral administration at 10 mg/kg; type: functional, organism-based; design: dose 10 mg/kg
Rattus norvegicus [4] = assay: Plasma levels of compound was evaluated in rats after 1 hr of oral administration at 10 mg/kg; type: functional, organism-based; design: dose 10 mg/kg
Rattus norvegicus [5] = assay: Plasma levels of compound was evaluated in rats after 8 hr of oral administration at 10 mg/kg; type: functional, organism-based; design: dose 10 mg/kg
Mus musculus = assay: In vivo efficacy of compound was determined in mouse after intravenous administration; type: functional
Oryctolagus cuniculus = species: Oryctolagus cuniculus; assay: Antagonistic activity towards endothelin A receptor was evaluated using the rabbit iliac artery in presence of 3% human serum albumin; type: functional
Rattus norvegicus [6] = assay: Plasma levels of compound was evaluated in rats after 1 hr of oral administration at 3 mg/kg; type: functional, organism-based; design: dose 3 mg/kg
Rattus norvegicus [7] = assay: Plasma levels of compound was evaluated in rats after 8 hr of oral administration at 3 mg/kg; type: functional, organism-based; design: dose 3 mg/kg
Rattus norvegicus [8] = assay: Plasma levels of compound was evaluated in rats after 4 hr of oral administration at 3 mg/kg; type: functional, organism-based; design: dose 3 mg/kg

## COc1ccc([C@@H]2c3nc(NC(C)C)ccc3[C@H](c3ccc4c(c3)OCO4)[C@H]2C(=O)O)c(OCc2ccccc2)c1
[1]
  IC50: 480 nM
Endothelin-1 receptor
  IC50: 0.8 nM
[2]
  Selectivity ratio: 600

## COc1ccc([C@@H]2c3nc(NC(C)C)ccc3[C@H](c3ccc4c(c3)OCO4)[C@H]2C(=O)O)c(CCO)c1
[1]
  IC50: 19 nM
Endothelin-1 receptor
  IC50: 0.031 nM
[2]
  Selectivity ratio: 610

## COc1ccc([C@@H]2c3nc(NC(C)C)ccc3[C@H](c3ccc4c(c3)OCO4)[C@H]2C(=O)O)c(OC(C)C)c1
[1]
  IC50: 88 nM
Endothelin-1 receptor
  IC50: 0.11 nM
[2]
  Selectivity ratio: 800

## CCCOc1cc(OC)ccc1[C@@H]1c2nc(NC(C)C)ccc2[C@H](c2ccc3c(c2)OCO3)[C@H]1C(=O)O
[1]
  IC50: 100 nM
Endothelin-1 receptor
  IC50: 0.41 nM
[2]
  Selectivity ratio: 240

## COc1ccc([C@@H]2c3nc(NC(C)C)ccc3[C@H](c3ccc4c(c3)OCO4)[C@H]2C(=O)O)c(CCCO)c1
[1]
  IC50: 20 nM
Endothelin-1 receptor
  IC50: 0.022 nM
[2]
  Selectivity ratio: 910

## COc1ccc([C@@H]2c3nc(NC(C)C)ccc3[C@H](c3ccc4c(c3)OCO4)[C@H]2C(=O)O)c(OC)c1
[1]
  IC50: 25 nM
Endothelin-1 receptor
  IC50: 0.047 nM
[2]
  Selectivity ratio: 530

## COc1ccc([C@@H]2c3nc(NC(C)C)ccc3[C@H](c3ccc4c(c3)OCO4)[C@H]2C(=O)O)c(O)c1
[1]
  IC50: 290 nM
Endothelin-1 receptor
  IC50: 0.22 nM
[2]
  Selectivity ratio: 1300

## COc1ccc([C@@H]2c3nc(NC(C)C)ccc3[C@H](c3ccc4c(c3)OCO4)[C@H]2C(=O)O)c(CCC(C)(C)O)c1
[1]
  IC50: 23 nM
Endothelin-1 receptor
  IC50: 0.065 nM
[2]
  Selectivity ratio: 350

## COc1ccc([C@@H]2c3nc(NC(C)C)ccc3[C@H](c3ccc4c(c3)OCO4)[C@H]2C(=O)O)c(OCC(C)C)c1
[1]
  IC50: 420 nM
Endothelin-1 receptor
  IC50: 0.86 nM
[2]
  Selectivity ratio: 490

## CCOc1cc(OC)ccc1[C@@H]1c2nc(NC(C)C)ccc2[C@H](c2ccc3c(c2)OCO3)[C@H]1C(=O)O
[1]
  IC50: 45 nM
Endothelin-1 receptor
  IC50: 0.74 nM
[2]
  Selectivity ratio: 61

## COc1ccc([C@@H]2c3nc(NC(C)C)ccc3[C@H](c3ccc4c(c3)OCO4)[C@H]2C(=O)O)c(CC(C)(C)O)c1
[1]
  IC50: 14 nM
Rattus norvegicus [3]
  Plasma level: 48 nM
Endothelin-1 receptor
  IC50: 0.014 nM
[2]
  Selectivity ratio: 1000
Rattus norvegicus [4]
  Plasma level: 460 nM
Rattus norvegicus [5]
  Plasma level: 110 nM
Mus musculus
  AD50: 0.042 MPK

## COc1ccc([C@@H]2c3nc(NC(C)C)ccc3[C@H](c3ccc4c(c3)OCO4)[C@H]2C(=O)O)c(CC(O)CO)c1 (single isomer, unassigned) [listing 1 of 2 here]
[1]
  IC50: 6 nM
Endothelin-1 receptor
  IC50: 0.011 nM

## COc1ccc([C@@H]2c3nc(NC(C)C)ccc3[C@H](c3ccc4c(c3)OCO4)[C@H]2C(=O)O)c(CC(C)C(=O)N(C)C)c1 (single isomer, unassigned) [listing 1 of 2 here]
[1]
  IC50: 9.5 nM
Endothelin-1 receptor
  IC50: 0.014 nM

## COc1ccc([C@@H]2c3nc(NC(C)C)ccc3[C@H](c3ccc4c(c3)OCO4)[C@H]2C(=O)O)c(CC(C)C(=O)N(C)C)c1 (single isomer, unassigned) [listing 2 of 2 here]
[2]
  Selectivity ratio: 680

## COc1ccc([C@@H]2c3nc(NC(C)C)ccc3[C@H](c3ccc4c(c3)OCO4)[C@H]2C(=O)O)c(CC(O)CO)c1 (single isomer, unassigned) [listing 2 of 2 here]
[2]
  Selectivity ratio: 550

## COc1ccc([C@@H]2c3nc(NC(C)C)ccc3[C@H](c3ccc4c(c3)OCO4)[C@H]2C(=O)O)c(CC(O)CO)c1 (stereo in doubt) [listing 1 of 2 here]
[1]
  IC50: 5.6 nM
Endothelin-1 receptor
  IC50: 0.048 nM

## COc1ccc([C@@H]2c3nc(NC(C)C)ccc3[C@H](c3ccc4c(c3)OCO4)[C@H]2C(=O)O)c(CC(C)C(=O)N(C)C)c1 (stereo in doubt) [listing 1 of 2 here]
[1]
  IC50: 43 nM
Endothelin-1 receptor
  IC50: 0.024 nM
Mus musculus
  AD50: 0.017 MPK

## COc1ccc([C@@H]2c3nc(NC(C)C)ccc3[C@H](c3ccc4c(c3)OCO4)[C@H]2C(=O)O)c(CC(C)C(=O)N(C)C)c1 (stereo in doubt) [listing 2 of 2 here]
Rattus norvegicus [3]
  Plasma level: 7 nM
[2]
  Selectivity ratio: 1800
Rattus norvegicus [4]
  Plasma level: 65 nM
Rattus norvegicus [5]
  Plasma level: 10 nM

## COc1ccc([C@@H]2c3nc(NC(C)C)ccc3[C@H](c3ccc4c(c3)OCO4)[C@H]2C(=O)O)c(CC(O)CO)c1 (stereo in doubt) [listing 2 of 2 here]
[2]
  Selectivity ratio: 120

## COc1ccc([C@@H]2c3nc(NC(C)C)ccc3[C@H](c3ccc4c(c3)OCO4)[C@H]2C(=O)O)c(OC(C)CO)c1 (stereo in doubt; form 1) [listing 1 of 2 here]
Oryctolagus cuniculus
  PKB: 8
[1]
  IC50: 61 nM
Endothelin-1 receptor
  IC50: 0.036 nM
Mus musculus
  AD50: 0.046 MPK

## CCC(CO)Cc1cc(OC)ccc1[C@@H]1c2nc(NC(C)C)ccc2[C@H](c2ccc3c(c2)OCO3)[C@H]1C(=O)O (stereo in doubt; form 1) [listing 1 of 2 here]
[1]
  IC50: 15.7 nM
Endothelin-1 receptor
  IC50: 0.045 nM

## CCC(CO)Cc1cc(OC)ccc1[C@@H]1c2nc(NC(C)C)ccc2[C@H](c2ccc3c(c2)OCO3)[C@H]1C(=O)O (stereo in doubt; form 1) [listing 2 of 2 here]
[2]
  Selectivity ratio: 350

## COc1ccc([C@@H]2c3nc(NC(C)C)ccc3[C@H](c3ccc4c(c3)OCO4)[C@H]2C(=O)O)c(CC(C)CO)c1 (stereo in doubt; form 1)
Rattus norvegicus [6]
  Plasma level: 110 nM
Rattus norvegicus [7]
  Plasma level: 11 nM
[2]
  Selectivity ratio: 1300
Rattus norvegicus [8]
  Plasma level: 22 nM

## COc1ccc([C@@H]2c3nc(NC(C)C)ccc3[C@H](c3ccc4c(c3)OCO4)[C@H]2C(=O)O)c(OC(C)CO)c1 (stereo in doubt; form 1) [listing 2 of 2 here]
Rattus norvegicus [3]
  Plasma level: 47 nM
[2]
  Selectivity ratio: 1700
Rattus norvegicus [4]
  Plasma level: 160 nM
Rattus norvegicus [5]
  Plasma level: 62 nM

## COc1ccc([C@@H]2c3nc(NC(C)C)ccc3[C@H](c3ccc4c(c3)OCO4)[C@H]2C(=O)O)c(CC(C)CO)c1 (stereo in doubt; form 2) [listing 1 of 2 here]
[1]
  IC50: 51 nM
Endothelin-1 receptor
  IC50: 0.059 nM

## COc1ccc([C@@H]2c3nc(NC(C)C)ccc3[C@H](c3ccc4c(c3)OCO4)[C@H]2C(=O)O)c(OC(C)CO)c1 (stereo in doubt; form 2) [listing 1 of 2 here]
Oryctolagus cuniculus
  PKB: 7.46
[1]
  IC50: 78 nM
Endothelin-1 receptor
  IC50: 0.057 nM

## COCC(C)Cc1cc(OC)ccc1[C@@H]1c2nc(NC(C)C)ccc2[C@H](c2ccc3c(c2)OCO3)[C@H]1C(=O)O (stereo in doubt; form 2) [listing 1 of 2 here]
[1]
  IC50: 25 nM
Endothelin-1 receptor
  IC50: 0.011 nM
Mus musculus
  AD50: 0.042 MPK

## CCC(CO)Cc1cc(OC)ccc1[C@@H]1c2nc(NC(C)C)ccc2[C@H](c2ccc3c(c2)OCO3)[C@H]1C(=O)O (stereo in doubt; form 2) [listing 1 of 2 here]
[1]
  IC50: 11 nM
Endothelin-1 receptor
  IC50: 0.011 nM

## CCC(CO)Cc1cc(OC)ccc1[C@@H]1c2nc(NC(C)C)ccc2[C@H](c2ccc3c(c2)OCO3)[C@H]1C(=O)O (stereo in doubt; form 2) [listing 2 of 2 here]
[2]
  Selectivity ratio: 910

## COCC(C)Cc1cc(OC)ccc1[C@@H]1c2nc(NC(C)C)ccc2[C@H](c2ccc3c(c2)OCO3)[C@H]1C(=O)O (stereo in doubt; form 2) [listing 2 of 2 here]
Rattus norvegicus [3]
  Plasma level: 130 nM
[2]
  Selectivity ratio: 2300
Rattus norvegicus [4]
  Plasma level: 810 nM
Rattus norvegicus [5]
  Plasma level: 120 nM

## COc1ccc([C@@H]2c3nc(NC(C)C)ccc3[C@H](c3ccc4c(c3)OCO4)[C@H]2C(=O)O)c(CC(C)CO)c1 (stereo in doubt; form 2) [listing 2 of 2 here]
[2]
  Selectivity ratio: 860

## COc1ccc([C@@H]2c3nc(NC(C)C)ccc3[C@H](c3ccc4c(c3)OCO4)[C@H]2C(=O)O)c(OC(C)CO)c1 (stereo in doubt; form 2) [listing 2 of 2 here]
Rattus norvegicus [3]
  Plasma level: 20 nM
Rattus norvegicus [4]
  Plasma level: 440 nM
Rattus norvegicus [5]
  Plasma level: 69 nM
